In patent US7183276B2, “Azole compounds” (Takeda Pharmaceutical Company Limited, priority 2002, dated 2007) one finds melting point data, which are given here for 38 compounds.

The term melting point denotes the temperature, or range, at which the solid turns liquid. Consider `Cc1ccc(CNC(=O)CCCc2sc(-n3cnc4ccccc43)nc2-c2ccc(Cl)cc2)cc1` [Example 217, 4-[2-(1H-benzimidazol-1-yl)-4-(4-chlorophenyl)-5-thiazolyl]-N-(4-methylbenzyl)butanamide], for which the melting point lay within 138 to 139 °C.
In the case of `O=C(CCc1sc(-c2ccccc2)nc1-c1ccc(Cl)cc1)Nc1ccc(C(=O)O)cc1` [Example 64, 4-({3-[4-(4-chlorophenyl)-2-phenyl-5-thiazolyl]propanoyl}amino)benzoic acid] it was 294 to 295 °C.
`Cc1ccc(CNC(=O)CCc2oc(-n3cnc4ccccc43)nc2-c2ccc(Cl)cc2)c(C)c1` [Example 175, 3-[2-(1H-benzimidazol-1-yl)-4-(4-chlorophenyl)-5-oxazolyl]-N-(2,4-dimethylbenzyl)propionamide]: the melting point is 218 to 219 °C.
As for `N#Cc1ccc(NC(=O)CCc2oc(-n3cnc4ccccc43)nc2-c2ccc(Cl)cc2)cc1` [Example 112, 3-[2-(1H-benzimidazol-1-yl)-4-(4-chlorophenyl)-5-oxazolyl]-N-(4-cyanophenyl)propionamide], the figure is 216 to 217 °C.
With `CCS(=O)(=O)CCNC(=O)CCc1oc(-n2cnc3ccccc32)nc1-c1ccc(Cl)cc1` [Example 301, 3-[2-(1H-benzoimidazol-1-yl)-4-(4-chlorophenyl)-5-oxazolyl]-N-[2-(ethylsulfonyl)ethyl]propanamide], the melting point fell in the range of 182 to 183 °C.
In the case of `O=C(CCc1oc(-n2cnc3ccccc32)nc1-c1ccc(Cl)cc1)NCc1ccc(Cl)cc1F` [Example 159, 3-[2-(1H-benzimidazol-1-yl)-4-(4-chlorophenyl)-5-oxazolyl]-N-(4-chloro-2-fluorobenzyl)propionamide] it was 189 to 191 °C; in that of `O=C(CCc1oc(-c2ccccc2)nc1-c1ccc(Cl)cc1)Nc1ccc(C(=O)O)cc1` [Example 63, 4-({3-[4-(4-chlorophenyl)-2-phenyl-5-oxazolyl]propanoyl}amino)benzoic acid], 243 to 244 °C.
Regarding `O=C(CCc1oc(-n2cnc3ccccc32)nc1-c1ccc(Cl)cc1)Nc1ccc(C(F)(F)F)cc1` [Example 121, 3-[2-(1H-benzimidazol-1-yl)-4-(4-chlorophenyl)-5-oxazolyl]-N-[4-(trifluoromethyl)phenyl]propionamide], the melting point lay in the range of 259 to 263 °C.
In the case of `CCOP(=O)(Cc1ccc(NC(=O)CCc2oc(-n3cnc4ccccc43)nc2-c2ccc(F)cc2)cc1)OCC` it was 95 to 96 °C.
For `CCOC(=O)Cc1ccc(NC(=O)CCc2oc(-n3cnc4ccccc43)nc2-c2ccc(Cl)cc2)cc1` [Example 76, 3-[2-(1H-benzimidazol-1-yl)-4-(4-chlorophenyl)-5-oxazolyl]-N-[4-(ethoxycarbonylmethyl)phenyl]propionamide], the melting point is 181 to 182 °C.
Compound `CCOP(=O)(Cc1ccc(NC(=O)CCCc2oc(-n3cnc4ccccc43)nc2-c2ccc(Cl)cc2)c(C)c1)OCC` had a melting point of 118 to 119 °C.
In the case of `CNC(=O)Cc1ccc(NC(=O)CCc2oc(-n3cnc4ccccc43)nc2-c2ccc(Cl)cc2)cc1` [Example 143, 2-[4-({3-[2-(1H-benzimidazol-1-yl)-4-(4-chlorophenyl)-5-oxazolyl]propanoyl}amino)phenyl]-N-methylacetamide] it was 219 to 221 °C; in that of `O=C(CCCc1sc(-n2cnc3ccccc32)nc1-c1ccc(Cl)cc1)NCc1cc(Br)ccc1F` [Example 216, 4-[2-(1H-benzimidazol-1-yl)-4-(4-chlorophenyl)-5-thiazolyl]-N-(5-bromo-2-fluorobenzyl)butanamide], 160 to 161 °C; in that of `COc1ccccc1CNC(=O)CCc1oc(-n2cnc3ccccc32)nc1-c1ccc(Cl)cc1` [Example 133, 3-[2-(1H-benzimidazol-1-yl)-4-(4-chlorophenyl)-5-oxazolyl]-N-(2-methoxybenzyl)propionamide], 210 to 211 °C.
As for `CCOP(=O)(Cc1ccc(NC(=O)CCc2sc(NC(=S)NCc3ccccc3)nc2-c2ccc(Cl)cc2)cc1)OCC`, the figure is 202 to 203 °C; as for `COC(=O)c1ccc(NC(=O)CCc2oc(-n3cnc4ccccc43)nc2-c2ccc(Cl)cc2)cc1` [Example 91, 3-[2-(1H-benzimidazol-1-yl)-4-(4-chlorophenyl)-5-oxazolyl]-N-[4-(methoxycarbonyl)phenyl]propionamide], 249 to 250 °C.
In the case of `CCOP(=O)(Cc1ccc(NC(=O)CCc2oc(-c3ccc(F)cc3)nc2-c2ccc(Cl)cc2)cc1)OCC` it was 148 to 149 °C; in that of `O=C(CCc1oc(-n2cnc3ccccc32)nc1-c1ccc(Cl)cc1)NCc1cc(F)cc(C(F)(F)F)c1` [Example 163, 3-[2-(1H-benzimidazol-1-yl)-4-(4-chlorophenyl)-5-oxazolyl]-N-[3-fluoro-5-(trifluoromethyl)benzyl]propionamide], 198 to 200 °C.
`O=C(CCc1sc(-n2cnc3ccccc32)nc1-c1ccc(Cl)cc1)NCc1cc(Br)ccc1F` [Example 202, 3-[2-(1H-benzimidazol-1-yl)-4-(4-chlorophenyl)-5-thiazolyl]-N-(5-bromo-2-fluorobenzyl)propionamide] registered a melting point of 188 to 189 °C.
In the case of `CCOP(=O)(Cc1ccc(NC(=O)CCc2oc(NCc3ccccc3)nc2-c2ccc(Cl)cc2)cc1)OCC` it was 156 to 157 °C.
In the case of `CCOP(=O)(Cc1ccc(NC(=O)CCc2sc(NS(=O)(=O)c3ccccc3)nc2-c2ccc(Cl)cc2)cc1)OCC` it was 213 to 214 °C; in that of `CS(=O)(=O)C1CCN(C(=O)CCc2oc(-n3cnc4ccccc43)nc2-c2ccc(Cl)cc2)CC1` [Example 307, 1-{3-[2-(1H-benzoimidazol-1-yl)-4-(4-chlorophenyl)-5-oxazolyl]propanoyl}-4-(methylsulfonyl)piperidine], 215 to 216 °C.
In turn, `O=C(CCc1oc(-n2cnc3ccccc32)nc1-c1ccc(Cl)cc1)NCc1ccc(Cl)cc1` [Example 152, 3-[2-(1H-benzimidazol-1-yl)-4-(4-chlorophenyl)-5-oxazolyl]-N-(4-chlorobenzyl)propionamide] came in with a melting point of 190 to 191 °C.
In the case of `Cc1cc(Cl)ccc1CNC(=O)CCc1oc(-n2cnc3ccccc32)nc1-c1ccc(Cl)cc1` [Example 178, 3-[2-(1H-benzimidazol-1-yl)-4-(4-chlorophenyl)-5-oxazolyl]-N-(4-chloro-2-methylbenzyl)propionamide] it was 200 to 201 °C; in that of `NC(=O)CCc1oc(N2CCOCC2)nc1-c1ccc(Cl)cc1` [Example 9, 3-[4-(4-chlorophenyl)-2-(4-morpholinyl)-5-oxazolyl]propionamide], 180 to 181 °C.
In the case of `O=C(CCc1oc(-n2cnc3ccccc32)nc1-c1ccc(Cl)cc1)NCc1ccc(-c2ccccc2)cc1` [Example 153, 3-[2-(1H-benzimidazol-1-yl)-4-(4-chlorophenyl)-5-oxazolyl]-N-(4-phenylbenzyl)propionamide] it was 214 to 216 °C.
As for `N#CCc1ccc(NC(=O)Cc2sc(-n3cnc4ccccc43)nc2-c2ccc(Cl)cc2)cc1` [Example 219, 2-[2-(1H-benzimidazol-1-yl)-4-(4-chlorophenyl)-5-thiazolyl]-N-[4-(cyanomethyl)phenyl]acetamide], the figure is 245 to 246 °C; as for `COc1ccc(NC(=O)CCc2oc(-n3cnc4ccccc43)nc2-c2ccc(Cl)cc2)cc1` [Example 114, 3-[2-(1H-benzimidazol-1-yl)-4-(4-chlorophenyl)-5-oxazolyl]-N-(4-methoxyphenyl)propionamide], 240 to 241 °C.
For `O=C(CCc1oc(-n2cnc3ccccc32)nc1-c1ccc(Cl)cc1)Nc1ccc(C2CCCCC2)cc1` [Example 116, 3-[2-(1H-benzimidazol-1-yl)-4-(4-chlorophenyl)-5-oxazolyl]-N-(4-cyclohexylphenyl)propionamide], the melting point was 216 to 217 °C.
In the case of `O=C(CCc1oc(-n2cnc3ccccc32)nc1-c1ccc(Cl)cc1)N1CCC(O)CC1` [Example 192, 1-{3-[2-(1H-benzimidazol-1-yl)-4-(4-chlorophenyl)-5-oxazolyl]propanoyl}-4-piperidinol] it was 182 to 183 °C.
In the case of `CCOC(=O)c1ccc(NC(=O)/C=C/c2oc(-c3ccccc3)nc2-c2ccc(Cl)cc2)cc1` [Example 56, (2E)-3-[4-(4-chlorophenyl)-2-phenyl-5-oxazolyl]-N-[4-(ethoxycarbonyl)phenyl]propenamide] it was 135 to 140 °C; in that of `Cc1ccc(CNC(=O)CCc2oc(-n3cnc4ccccc43)nc2-c2ccc(Cl)cc2)cc1` [Example 146, 3-[2-(1H-benzimidazol-1-yl)-4-(4-chlorophenyl)-5-oxazolyl]-N-(4-methylbenzyl)propionamide], 210 to 212 °C.
In the case of `CN(C)c1ccc(NC(=O)CCc2oc(-n3cnc4ccccc43)nc2-c2ccc(Cl)cc2)cc1` [Example 130, 3-[2-(1H-benzimidazol-1-yl)-4-(4-chlorophenyl)-5-oxazolyl]-N-[4-(dimethylamino)phenyl]propionamide] it was 212 to 214 °C; in that of `COc1ccc(OC)c(CNC(=O)CCc2oc(-n3cnc4ccccc43)nc2-c2ccc(Cl)cc2)c1` [Example 179, 3-[2-(1H-benzimidazol-1-yl)-4-(4-chlorophenyl)-5-oxazolyl]-N-(2,5-dimethoxybenzyl)propionamide], 193 to 194 °C.
On to `O=C(CCc1oc(-n2cnc3ccccc32)nc1-c1ccc(Cl)cc1)Nc1ccc(F)cc1` [Example 128, 3-[2-(1H-benzimidazol-1-yl)-4-(4-chlorophenyl)-5-oxazolyl]-N-(4-fluorophenyl)propionamide], for which the melting point fell in the range of 221 to 222 °C.
`CCOP(=O)(Cc1ccc(NC(=O)CCc2oc(-n3cnc4ccccc43)nc2-c2ccc(OC)cc2)cc1)OCC` gave a melting point of 143 to 144 °C.
Compound `O=C(CCc1oc(-n2cnc3ccccc32)nc1-c1ccc(Cl)cc1)NCc1ccc(F)cc1F` [Example 160, 3-[2-(1H-benzimidazol-1-yl)-4-(4-chlorophenyl)-5-oxazolyl]-N-(2,4-difluorobenzyl)propionamide] came in with a melting point of 190 to 191 °C.
Compound `CCOP(=O)(Cc1ccc(NC(=O)CCc2oc(-n3cnc4ccccc43)nc2-c2ccccc2)cc1)OCC` registered a melting point of 148 to 149 °C.
